Measured values taken from US11408038B2, “N-cadherin and FGFR1 and/or FGFR4 for use in predicting the response of patients to a lung cancer treatment and method and kit based on said use” (FUNDACIÓN DE INVESTIGACIÓN HOSPITAL 12 DE OCTUBRE, priority 2017, dated 2022).

What was measured:
[1] = system: mesenchymal bladder cancer cell lines; details: cited from earlier work
[2] = system: H520 cell line; assay: Cell proliferation (growth curve) with FGFR inhibitors, H520; assay type: cell-based; details: H520, endogenous FGFR1, FGFR4 and high N-cadherin; 0.5 μM or 1 μM
Method: (§1) 3,500 cells were seeded per well in 12-well plates. At 24 hours (day 0) the cells of the first point of the curve were fixed, and every 24-48 hours a new point of the curve was fixed and the medium of the rest was changed. The fixed plates were preserved with the cells in PBS at 4° C. until all the points of the curve were fixed. The plates were then stained with crystal violet for 20 minutes, washed and allowed to dry. Once dry, 20% acetic acid was added to each well to dilute the crystal violet, and the absorbance at 595 nm was measured on a VICTOR optical reading device (PerkinElmer). All absorbances were standardised in relation to the absorbance of day 0 of each experimental condition. Finally, this standardised value (growth relative to day 0 on the Y-axis) was plotted against time (days, X-axis).
(§2) To verify whether N-cadherin expression is decisive in the determination of the efficacy of FGFR inhibition in lung cancer treatment, the efficacy of two selective FGFR inhibitors, in terms of growth inhibition, was tested. For this purpose, cell lines with high endogenous expression of FGFR1 and/or FGFR4 and low expression of N-cadherin (A549 and H460), or with high endogenous expression of FGFR1 and/or FGFR4 and high expression of N-cadherin (H520 and H226) were selected. […]

[3] = system: H460 cell line; assay: Cell proliferation (growth curve) with FGFR inhibitors, H460; assay type: cell-based; details: H460, endogenous FGFR1, low N-cadherin; 0.5 μM or 1 μM
Method: as §1, §2

[4] = system: TP96 epidermoid carcinoma PDX (high FGFR1, FGFR4 and N-cadherin)
Method: (§3) Tumours from patients with non-small cell lung cancer, covered with Matrigel (BD #356234) are implanted in the flank of immunocompromised nude mice of 5-6 weeks of age, under anaesthesia by isofluorane inhalation and under analgesia by buprenorphine. To perform the implant, a small cut is made in the flank of the mouse under anaesthesia and analgesia and the tumour fragment is inserted, about 100-150 mm^3 in volume.
(§4) The size of the tumours generated by the xenografts was measured weekly with a measuring gauge. The shortest and longest length of each tumour was measured and the tumour volume was calculated with the formula: 0.5×(longest dimension)×(shortest dimension)^2.
For this purpose, the model of interest was implanted in 4-6 mice per treatment group as stated above, and the growth of the tumours generated was monitored. […] Once the groups were established, the treatments were commenced, lasting between 3 and 5 weeks, depending on the growth rate of each model and on the drug or drugs employed.
The concentration of AZD4547 employed was 7.5 mg/kg/day, administered from Monday to Friday. The route of administration of the drug was oral. At the end of the treatment, the mice were sacrificed and the tumours processed and stored as stated above.
(§5) The growth of the tumours is shown in graphs of tumour growth against time, where each measurement of tumour volume is relativised with the initial measurement after commencing the treatment, and the median and mean error are shown for each treatment group. The variation in tumour volume is represented with bar graphs which show the increase (or decrease), expressed as a percentage, of the volume of each tumour with regard to the initial volume in each treatment group

[5] = system: A549 cell line; assay: Cell proliferation (growth curve) with FGFR inhibitors, A549; assay type: cell-based; details: A549, endogenous FGFR1 and FGFR4, low N-cadherin; 0.5 μM or 1 μM
Method: as §1, §2

[6] = system: TP60 adenocarcinoma PDX (low N-cadherin); assay: PDX treatment, tumour growth, model TP60; assay type: in vivo, mice; details: 7.5 mg/kg/day oral, Monday to Friday
Method: as §3, §4
(§6) For this purpose, the model of interest was implanted in 4-6 mice per treatment group as stated above, and the growth of the tumours generated was monitored. […]
as §5

[7] = system: FGFR-related signalling pathways; assay: Western blot of FGFR-related signalling pathways in treated PDX TP60; assay type: in vivo, mice; details: TP60 tumours, low N-cadherin
Method: (§7) The total proteins of the tumours from xenografts were obtained by adding the lysis buffer to the previously pulverized tissue fragment in a mortar pre-cooled with liquid nitrogen, to avoid thawing the fragment; it was then incubated on ice for 2 hours, stirring every 10 minutes, and the volume was collected in 2 mL tubes that were centrifuged at 15,000×g for 10 minutes at 4° C. to eliminate the remnants of undissolved tissue, and the supernatant was stored at −80° C. The extraction buffer and the quantification method used were the same as in the case of protein extraction from cell lines.
Protein immunodetection was performed according to a standard protocol on PDVF membranes (GE Healthcare). The proteins were separated on SDS polyacrylamide gels using a 1X Tris HCl 0.13 M electrophoresis buffer, 0.95 M glycine, 0.5% SDS, and were transferred to PDVF membranes, using a Trans-Blot Turbo kit (BioRad). The transfer was performed at 400 mA for 3 hours in transfer buffer (0.025 M TrisHCl, 0.2 M glycine, 20% methanol). The membranes were blocked for 1 hour under stirring with the blocking buffer (TBS, 0.1% Tween20 and 1% BSA). […] The detection was performed using a chemiluminescent reaction (Clarity ECL, Biorad) and visualization using luminescence detection equipment (ChemiDoc, BioRad). […]

[8] = system: TP13 epidermoid carcinoma PDX (low N-cadherin); assay: PDX treatment, tumour growth, model TP13; assay type: in vivo, mice; details: 7.5 mg/kg/day oral, Monday to Friday
Method: as §3, §4, §6, §5

[9] = system: lung cancer cell lines; assay: In vitro experiments with the two FGFR inhibitors, growth inhibition overall; assay type: cell-based; details: BGJ398 versus AZD4547
Method: To verify whether N-cadherin expression is decisive in the determination of the efficacy of FGFR inhibition in lung cancer treatment, the efficacy of two selective FGFR inhibitors, in terms of growth inhibition, was tested. For this purpose, cell lines with high endogenous expression of FGFR1 and/or FGFR4 and low expression of N-cadherin (A549 and H460), or with high endogenous expression of FGFR1 and/or FGFR4 and high expression of N-cadherin (H520 and H226) were selected. In these lines, an analysis was performed on the effect on cell proliferation of two selective FGFR inhibitors: BGJ398 and AZD4547 (SELLECKCHEM, Refs. S2183 and S2801 respectively) with regard to time.

[10] = system: TP114 epidermoid carcinoma PDX (high N-cadherin); assay: PDX treatment, tumour growth, model TP114; assay type: in vivo, mice; details: 7.5 mg/kg/day oral
Method: as §3, §4, §6, §5

[11] = system: H226 cell line; assay: Cell proliferation (growth curve) with FGFR inhibitors, H226; assay type: cell-based; details: H226, endogenous FGFR1 and high N-cadherin; 0.5 μM or 1 μM
Method: as §1, §2

[12] = system: TP91 adenocarcinoma PDX (high N-cadherin); assay: PDX treatment, tumour growth, model TP91; assay type: in vivo, mice; details: 7.5 mg/kg/day oral
Method: as §3, §4, §6, §5

[13] = system: FGFR-related signalling pathways (pSTAT3, pAKT, p-p42/p44); assay: Western blot of FGFR-related signalling pathways in treated PDX TP91; assay type: in vivo, mice; details: TP91 tumours, high N-cadherin
Method: as §7
Protein immunodetection was performed according to a standard protocol on PDVF membranes (GE Healthcare). The proteins were separated on SDS polyacrylamide gels using a 1X Tris HCl 0.13 M electrophoresis buffer, 0.95 M glycine, 0.5% SDS, and were transferred to PDVF membranes, using a Trans-Blot Turbo kit (BioRad). The transfer was performed at 400 mA for 3 hours in transfer buffer (0.025 M TrisHCl, 0.2 M glycine, 20% methanol). The membranes were blocked for 1 hour under stirring with the blocking buffer (TBS, 0.1% Tween20 and 1% BSA). Subsequently, the membranes were incubated with the appropriate dilution of primary antibody for 16 hours at 4° C. After this incubation, the membranes were washed with washing buffer (TBS 0.1% Tween-20) and incubated with a 1:5,000 dilution of the appropriate peroxidase-conjugated secondary antibody, for one hour at ambient temperature. The detection was performed using a chemiluminescent reaction (Clarity ECL, Biorad) and visualization using luminescence detection equipment (ChemiDoc, BioRad).
The route of administration of the drug was oral.

Row | Molecule | responsiveness of mesenchymal versus epithelial bladder cancer cell lines [1] | effect on cell growth (relative growth with regard to time) [2] | effect on cell growth (relative growth with regard to time) [3] | average reduction in volume with regard to the control condition ([4]; TP96, high FGFR1, FGFR4 and N-cadherin, 7.5 mg/kg/day oral, Monday to Friday) | complete tumour regression, fraction of the tumours treated ([4]; TP96, 7.5 mg/kg/day oral) | response to the treatment ([4]; TP96, partial response = average reduction in tumour volume of 50% or greater vs volume at commencement of treatment) | effect on cell growth (relative growth with regard to time) [5] | effect on tumour growth [6] | activation of the FGFR-related signalling pathways studied [7] | effect on tumour growth [8] | efficacy in the in vitro experiments, compared between the two inhibitors [9] | average reduction in volume with regard to the control condition ([10]; TP114, high N-cadherin, Monday to Friday) | complete tumour regression, fraction of the tumours treated ([10]; TP114) | effect on cell growth (relative growth with regard to time) [11] | average reduction in volume with regard to the control condition ([12]; TP91, high N-cadherin, Monday to Friday) | complete tumour regression, fraction of the tumours treated ([12]; TP91) | levels of pAKT [13] | levels of pSTAT3 [13] | p-p42/p44 activation [13]
1 | CN1CCN(c2ccc3nc(-c4c(N)c5c(F)cccc5[nH]c4=O)[nH]c3c2)CC1 [TI-258] | more responsive | – | – | – | – | – | – | – | – | – | – | – | – | – | – | – | – | – | –
2 | AZD4547 | – | reduce the growth | do not exert a significant effect | 1.4% | ⅖ | partial response | do not exert a significant effect | no effect | does not alter the activation | no effect | greatest efficacy | 25.5% | ⅖ | reduce the growth | 14.4% | ⅕ | reduction | reduction | modest reduction
3 | CCN1CCN(c2ccc(Nc3cc(N(C)C(=O)Nc4c(Cl)c(OC)cc(OC)c4Cl)ncn3)cc2)CC1 [BGJ398] | – | reduce the growth | do not exert a significant effect | – | – | – | do not exert a significant effect | – | – | – | – | – | – | reduce the growth | – | – | – | – | –
